Columns and labels:
[1] = system: SrtA expression in S. aureus; experiment: Western blot analysis of SrtA expression; assay type: cell-based, Staphylococcus aureus; settings: 25–200 μM Tax, compared with the untreated group
Experimental: To evaluate the effect of Tax on SrtA expression, Tax (25–200 μM) was added to different bacterial cultures and incubated overnight at 37°C. Equal quantities of total protein from the bacterial lysates were separated by 12% SDS-PAGE then transferred to a polyvinylidene fluoride (PVDF) membrane using a transblot semidry system. Non-specific binding to the PVDF membrane was prevented by incubating in 5% bovine serum albumin (BSA) overnight at 4°C. The membranes were washed three times with PBST, agitating each time for 5 min, then incubated with rabbit polyclonal antibody (created in the laboratory) against SrtA. Following a further washing in PBST three times, the membranes were incubated with HRP-labeled goat anti-rabbit IgG (Bioworld, China) diluted 1:10,000 in antibody diluent (PBST + 1% BSA) at 37°C for 1 h. ΔsrtA or S. aureus USA300 without Tax was considered the control group. The cytoplasmic protein ClpP was analyzed as an internal control. Blots were visualized using an enhanced chemiluminescence (ECL) detection system (GE Healthcare, United Kingdom), while bands were quantified using ImageQuant TL software (GE Healthcare).
FIGURE 4 Expression of SrtA in the presence of Tax and the interaction of different concentrations of Tax with SrtA. […] Error bars represent means ± SD of three replicates. ***P < 0.001 calculated with a two-tailed Student’s t-test.

Q172A-SrtA mutant = target: T1, Q172A-SrtA mutant (Staphylococcus aureus, UniProt Q2FV99, Q172A); experiment: Fluorescence quenching assay, Q172A-SrtA; assay type: binding
T1 construct: 6xHis; made in house; host or cells: E. coli BL21 (DE3), mutated pET28a-SrtA
Experimental: Site-directed mutagenesis for D170A-SrtA and Q172A-SrtA was performed based on plasmid pET28a-SrtA using a multi-site mutagenesis kit (Transgen, Beijing, China) and the desired mutation was verified via DNA sequencing by Sangon Biotech (Shanghai, China). Subsequently, recombinant SrtA and the SrtA mutant proteins (D170A and Q172A) were expressed and purified in accordance with a previously published procedure ([Zhulenkovs et al., 2014]). Briefly, bacteria were cultured until an OD600 value of 0.8 was achieved, after which 0.5 mM isopropyl-β-D-thiogalactopyranoside (IPTG) was added to induce recombination of SrtA at 16°C overnight. Because the recombinant protein had 6 × His tags, it was purified using a nickel-nitrilotriacetic acid (Ni-NTA) purification system. Imidazole (10 mM) was used to wash away excess protein, while 400 mM imidazole was employed to elute the target protein.
Molecular modeling studies highlight the benefits of performing site-directed mutagenesis studies. Therefore, fluorescence quenching experiments were utilized to determine the binding affinity of Tax with SrtA and SrtA mutants (D170A, Q172A).

S. aureus SrtA = target: T2, S. aureus SrtA (Staphylococcus aureus, UniProt Q2FV99); experiment: FRET assay of SrtA transpeptidation (cleavage of Abz-LPATG-Dap(Dnp)-NH2); assay type: biochemical
T2 construct: 6xHis; made in house; host or cells: E. coli BL21 (DE3), plasmid pET28a-SrtA
Experimental: Fluorescence resonant energy transfer (FRET) was used to determine the effect of Tax on SrtA, as described previously ([Kruger et al., 2002]). Briefly, 4 μM purified recombinant SrtA was combined with various concentrations of Tax then added to assay buffer consisting of 50 mM Tris-HCl, 5 mM CaCl2, 150 mM NaCl, at pH 7.5, to a final volume of 200 μL. Following incubation of the mixture at 37°C for 1 h, substrate peptide was added to a final concentration of 10 μM and incubated for an additional 30 min. Fluorescence intensity was measured at excitation and emission wavelengths of 309 and 420 nm, respectively.
To identify novel inhibitors of SrtA, an in-house library containing 420 natural compounds was screened, using a FRET assay. […] To further clarify the interacting way of SrtA and Tax, recombinant SrtA was reacted with Tax at a concentration of 10-fold IC50. A total of 85.80 ± 0.67% of SrtA activity was subsequently recovered, compared with the control group (DMSO) (Figure 1C).
FIGURE 1 Inhibition of SrtA transpeptidation. (A) Chemical structure of Tax. […] Each reaction condition was assayed in triplicate from which the IC50 was determined. (C) Recombinant SrtA was treated with 10 × IC50 of Tax and then diluted, after which transpeptidation activity was measured using a FRET assay. […]

[2] = system: surface-anchored SpA of S. aureus; experiment: FITC-IgG binding assay for staphylococcal protein A (SpA); assay type: cell-based; settings: Staphylococcus aureus, read-out: SpA fluorescence, relative activity % of the WT group
Experimental: Bacterial cultures grown overnight were diluted 1:100 and cultured in an incubator at 37°C with Tax or DMSO to a concentration of 10^8 CFU/mL. The ΔsrtA mutant strain was assayed as a positive control. The bacteria were collected and washed three times in PBS. A 50 μL aliquot of bacterial culture was mixed with an equal volume of FITC-labeled rabbit anti-goat-IgG (1:200, Sigma, United States) then incubated in the dark for 1 h. The bacteria were then washed and suspended in PBS. A multimode microplate reader (Tecan, Spark 20M) was used to measure fluorescence intensity at 535 nm when illuminated at an excitation wavelength of 485 nm.
FIGURE 3 Effect of SrtA inhibitor on virulence-related phenotypes in S. aureus Newman strain. (A) Impact of Tax on the ability of S. aureus to adhere to fibrinogen. (B) Biofilm formation of S. aureus in the presence of different concentrations of Tax. (C) Mature biofilms of S. aureus in the presence of different concentrations of Tax. The ΔsrtA group represented the positive control. (D) Tax affects internalization of S. aureus into A549 cells. […] The number of viable S. aureus in the cells was quantified by serial dilution on TSA agar plates. […] Error bars represent means ± SD of three replicates. *P < 0.05, **P < 0.01, ***P < 0.001 calculated with a two-tailed Student’s t-test.

## O=C1c2c(O)cc(O)cc2OC(c2ccc(O)c(O)c2)C1O (stereo not shown) [Tax, taxifolin]
[1]
  effect on SrtA expression: no apparent effect
Q172A-SrtA mutant
  Kd: 26 µM
S. aureus SrtA
  IC50: 24.5 ± 0.42 µM
[2]
  activity at 200 µM: 36.1 ± 1.59%
